From article PMC6318274, “Lattice engineering enables definition of molecular features allowing for potent small-molecule inhibition of HIV-1 entry” (Nature Communications, 2019)
pIC50: −log10 of the molar value. “And” between values parts separate entries of the source, which are not always exact repeats. Equal values may be shown once. Read-outs that look alike come from different tables or passages of the source.

System: HIV-1 Env-pseudoviruses (208-strain panel)
Assay: microbe, parasite or virus in culture
Assay type: cell-based
Parameters: Total Neutralized / % Neutralized: concentration or dose not given beside the values
Method: Neutralization was measured using single-round-of-infection HIV-1 Env-pseudoviruses and TZM-bl target cells (ARP Cat No. #8129)[44],[45]. Compounds were prepared at 400 μM with 4% DMSO (dimethyl sulfoxide) in PBS (phosphate-buffered saline) and diluted 20 times as the starting concentration for serial dilution in the neutralization assays. […] After incubation at 37 °C for 2 days, infection of target cells was measured by luciferase activity. Neutralization curves were fit by nonlinear regression using a five-parameter hill slope equation[45].

Structure (SMILES): COc1cnc(-c2csc(C(=O)NCCO)n2)c2[nH]cc(C(=O)C(=O)N3CCC(=C(C#N)c4ccccc4)CC3)c12 [BMS-818251]
- % Neutralized: 99% and 98% and 93% and 83% and 75%
- Total Neutralized: 205 and 204 and 194 and 173 and 155
- pIC50 (Human immunodeficiency virus 1, BAL, TZM-bl, BaL.26, clade B, read-out: IC50): 10.00
- pIC50 (Human immunodeficiency virus 1, HXB2, TZM-bl, HXB2.DG, clade B, read-out: IC50): 10.00
- pIC50 (Human immunodeficiency virus 1, SC422, TZM-bl, SC422.8, clade B, read-out: IC50): 9.70
- pIC50 (Human immunodeficiency virus 1, TZM-bl): 9.52
- pIC50 (Human immunodeficiency virus 1, TZM-bl, 45_01dG5, clade B, read-out: IC50): 9.70
- pIC50 (Human immunodeficiency virus 1, TZM-bl, 0077.v1.c16, clade C, read-out: IC50): 9.70
- pIC50 (Human immunodeficiency virus 1, TZM-bl, 89.6.DG, clade B, read-out: IC50): 10.00
- pIC50 (Human immunodeficiency virus 1, TZM-bl, 96ZM651.02, clade C, read-out: IC50): 10.00
- pIC50 (Human immunodeficiency virus 1, TZM-bl, 208-strain panel, read-out: Geometric mean IC50): 8.82
- pIC50 (Human immunodeficiency virus 1, TZM-bl, 208-strain panel, read-out: Median IC50): 9.30
- pIC50 (Human immunodeficiency virus 1, TZM-bl, 235-47, clade AG, read-out: IC50): 10.00
- pIC50 (Human immunodeficiency virus 1, TZM-bl, 242-14 (Clade AG), read-out: IC50): 9.30
- pIC50 (Human immunodeficiency virus 1, TZM-bl, 246-F3.C10.2, clade AC, read-out: IC50): 8.70
- pIC50 (Human immunodeficiency virus 1, TZM-bl, 247-23 (Clade D), read-out: IC50): 9.30
- pIC50 (Human immunodeficiency virus 1, TZM-bl, 0260.v5.c36, clade A, read-out: IC50): 9.00
- pIC50 (Human immunodeficiency virus 1, TZM-bl, 263-8, clade AG, read-out: IC50): 10.00
- pIC50 (Human immunodeficiency virus 1, TZM-bl, 269-12, clade AG, read-out: IC50): 6.18
- pIC50 (Human immunodeficiency virus 1, TZM-bl, 271-11, clade AG, read-out: IC50): 5.91
- pIC50 (Human immunodeficiency virus 1, TZM-bl, 286.36, clade C, read-out: IC50): 10.00
- pIC50 (Human immunodeficiency virus 1, TZM-bl, 288.38, clade C, read-out: IC50): 9.70
- pIC50 (Human immunodeficiency virus 1, TZM-bl, 0330.v4.c3 (Clade A), read-out: IC50): 8.00
- pIC50 (Human immunodeficiency virus 1, TZM-bl, 398-F1.F6.20, clade A, read-out: IC50): 7.96
- pIC50 (Human immunodeficiency virus 1, TZM-bl, 426c (Clade C), read-out: IC50): 9.22
- pIC50 (Human immunodeficiency virus 1, TZM-bl, 0439.v5.c1, clade A, read-out: IC50): 9.22
- pIC50 (Human immunodeficiency virus 1, TZM-bl, 0815.v3.c3, clade ACD, read-out: IC50): 10.00
- pIC50 (Human immunodeficiency virus 1, TZM-bl, 00836-2.5, clade C, read-out: IC50): 4.91
- pIC50 (Human immunodeficiency virus 1, TZM-bl, 0921.v2.c14, clade C, read-out: IC50): 10.00
- pIC50 (Human immunodeficiency virus 1, TZM-bl, 928-28, clade AG, read-out: IC50): 7.34
- pIC50 (Human immunodeficiency virus 1, TZM-bl, 001428-2.42, clade C, read-out: IC50): 7.85
- pIC50 (Human immunodeficiency virus 1, TZM-bl, 3168.v4.c10, clade C, read-out: IC50): 10.00
- pIC50 (Human immunodeficiency virus 1, TZM-bl, 3301.v1.c24, clade AC, read-out: IC50): 8.30
- pIC50 (Human immunodeficiency virus 1, TZM-bl, 3326.v4.c3, clade CD, read-out: IC50): 10.00
- pIC50 (Human immunodeficiency virus 1, TZM-bl, 3337.v2.c6, clade CD, read-out: IC50): 9.70
- pIC50 (Human immunodeficiency virus 1, TZM-bl, 3365.v2.c20, clade A, read-out: IC50): 7.05
- pIC50 (Human immunodeficiency virus 1, TZM-bl, 3415.v1.c1, clade A, read-out: IC50): 9.40
- pIC50 (Human immunodeficiency virus 1, TZM-bl, 3468.v1.c12, clade AD, read-out: IC50): 9.30
- pIC50 (Human immunodeficiency virus 1, TZM-bl, 3589.v1.c4, clade AC, read-out: IC50): 9.70
- pIC50 (Human immunodeficiency virus 1, TZM-bl, 3637.v5.c3, clade C, read-out: IC50): 9.70
- pIC50 (Human immunodeficiency virus 1, TZM-bl, 3718.v3.c11, clade A, read-out: IC50): 9.15
- pIC50 (Human immunodeficiency virus 1, TZM-bl, 3817.v2.c59, clade CD, read-out: IC50): 8.10
- pIC50 (Human immunodeficiency virus 1, TZM-bl, 3873.v1.c24, clade C, read-out: IC50): 10.00
- pIC50 (Human immunodeficiency virus 1, TZM-bl, 3988.25, clade B, read-out: IC50): 10.00
- pIC50 (Human immunodeficiency virus 1, TZM-bl, 5768.04, clade B, read-out: IC50): 9.52
- pIC50 (Human immunodeficiency virus 1, TZM-bl, 6095.v1.c10, clade ACD, read-out: IC50): 10.00
- pIC50 (Human immunodeficiency virus 1, TZM-bl, 6101.10, clade B, read-out: IC50): 10.00
- pIC50 (Human immunodeficiency virus 1, TZM-bl, 6322.v4.c1, clade C, read-out: IC50): 7.38
- pIC50 (Human immunodeficiency virus 1, TZM-bl, 6405.v4.c34, clade D, read-out: IC50): 6.59
- pIC50 (Human immunodeficiency virus 1, TZM-bl, 6471.v1.c16, clade C, read-out: IC50): 10.00
- pIC50 (Human immunodeficiency virus 1, TZM-bl, 6540.v4.c1, clade AC, read-out: IC50): 8.70
- pIC50 (Human immunodeficiency virus 1, TZM-bl, 6545.v4.c1, clade AC, read-out: IC50): 9.30
- pIC50 (Human immunodeficiency virus 1, TZM-bl, 6631.v3.c10, clade C, read-out: IC50): 10.00
- pIC50 (Human immunodeficiency virus 1, TZM-bl, 6644.v2.c33, clade C, read-out: IC50): 8.70
- pIC50 (Human immunodeficiency virus 1, TZM-bl, 6785.v5.c14, clade C, read-out: IC50): 8.22
- pIC50 (Human immunodeficiency virus 1, TZM-bl, 6838.v1.c35, clade C, read-out: IC50): 9.40
- pIC50 (Human immunodeficiency virus 1, TZM-bl, 7165.18 (Clade B), read-out: IC50): 7.96
- pIC50 (Human immunodeficiency virus 1, TZM-bl, 0013095-2.11, clade C, read-out: IC50): 10.00
- pIC50 (Human immunodeficiency virus 1, TZM-bl, 16055-2.3, clade C, read-out: IC50): 9.52
- pIC50 (Human immunodeficiency virus 1, TZM-bl, 16845-2.22, clade C, read-out: IC50): 10.00
- pIC50 (Human immunodeficiency virus 1, TZM-bl, 16936-2.21, clade C, read-out: IC50): 9.40
- pIC50 (Human immunodeficiency virus 1, TZM-bl, 25710-2.43, clade C, read-out: IC50): 10.00
- pIC50 (Human immunodeficiency virus 1, TZM-bl, 25711-2.4, clade C, read-out: IC50): 9.00
- pIC50 (Human immunodeficiency virus 1, TZM-bl, 25925-2.22, clade C, read-out: IC50): 10.00
- pIC50 (Human immunodeficiency virus 1, TZM-bl, 26191-2.48, clade C, read-out: IC50): 10.00
- pIC50 (Human immunodeficiency virus 1, TZM-bl, 57128.vrc15, clade D, read-out: IC50): 9.22
- pIC50 (Human immunodeficiency virus 1, TZM-bl, 191821.E6.1, clade D, read-out: IC50): 10.00
- pIC50 (Human immunodeficiency virus 1, TZM-bl, 231965.c01, clade D, read-out: IC50): 10.00
- pIC50 (Human immunodeficiency virus 1, TZM-bl, 620345.c1, clade AE, read-out: IC50): 7.31
- pIC50 (Human immunodeficiency virus 1, TZM-bl, A07412M1.vrc12, clade D, read-out: IC50): 9.00
- pIC50 (Human immunodeficiency virus 1, TZM-bl, AC10.29, clade B, read-out: IC50): 9.70
- pIC50 (Human immunodeficiency virus 1, TZM-bl, ADA.DG, clade B, read-out: IC50): 10.00
- pIC50 (Human immunodeficiency virus 1, TZM-bl, BB201.B42, clade A, read-out: IC50): 8.40
- pIC50 (Human immunodeficiency virus 1, TZM-bl, BB539.2B13, clade A, read-out: IC50): 9.70
- pIC50 (Human immunodeficiency virus 1, TZM-bl, BG1168.01, clade B, read-out: IC50): 9.00
- pIC50 (Human immunodeficiency virus 1, TZM-bl, BI369.9A, clade A, read-out: IC50): 9.52
- pIC50 (Human immunodeficiency virus 1, TZM-bl, BJOX002000.03.2, clade BC, read-out: IC50): 9.70
- pIC50 (Human immunodeficiency virus 1, TZM-bl, BJOX009000.02.4, clade AE, read-out: IC50): 6.98
- pIC50 (Human immunodeficiency virus 1, TZM-bl, BJOX010000.06.2, clade AE, read-out: IC50): 5.78
- pIC50 (Human immunodeficiency virus 1, TZM-bl, BJOX025000.01.1, clade AE, read-out: IC50): 6.75
- pIC50 (Human immunodeficiency virus 1, TZM-bl, BJOX028000.10.3 (Clade AE), read-out: IC50): 6.63
- pIC50 (Human immunodeficiency virus 1, TZM-bl, BL01.DG (Clade B), read-out: IC50): 5.53
- pIC50 (Human immunodeficiency virus 1, TZM-bl, BR07.DG, clade B, read-out: IC50): 6.19
- pIC50 (Human immunodeficiency virus 1, TZM-bl, BR025.9, clade C, read-out: IC50): 6.06
- pIC50 (Human immunodeficiency virus 1, TZM-bl, BS208.B1, clade A, read-out: IC50): 9.52
- pIC50 (Human immunodeficiency virus 1, TZM-bl, BX08.16, clade B, read-out: IC50): 10.00
- pIC50 (Human immunodeficiency virus 1, TZM-bl, C1080.c3, clade AE, read-out: IC50): 5.27
- pIC50 (Human immunodeficiency virus 1, TZM-bl, C2101.c1, clade AE, read-out: IC50): 5.83
- pIC50 (Human immunodeficiency virus 1, TZM-bl, C3347.c11, clade AE, read-out: IC50): 6.34
- pIC50 (Human immunodeficiency virus 1, TZM-bl, C4118.09 (Clade AE), read-out: IC50): 7.23
- pIC50 (Human immunodeficiency virus 1, TZM-bl, CAAN.A2, clade B, read-out: IC50): 10.00
- pIC50 (Human immunodeficiency virus 1, TZM-bl, CAP45.G3, clade C, read-out: IC50): 8.40
- pIC50 (Human immunodeficiency virus 1, TZM-bl, CAP210.E8 (Clade C), read-out: IC50): 7.85
- pIC50 (Human immunodeficiency virus 1, TZM-bl, CAP244.D3, clade C, read-out: IC50): 10.00
- pIC50 (Human immunodeficiency virus 1, TZM-bl, CE703010217.B6, clade C, read-out: IC50): 10.00
- pIC50 (Human immunodeficiency virus 1, TZM-bl, CH038.12, clade BC, read-out: IC50): 7.04
- pIC50 (Human immunodeficiency virus 1, TZM-bl, CH070.1, clade BC, read-out: IC50): 9.10
- pIC50 (Human immunodeficiency virus 1, TZM-bl, CH117.4, clade BC, read-out: IC50): 9.40
- pIC50 (Human immunodeficiency virus 1, TZM-bl, CH119.10 (Clade BC), read-out: IC50): 10.00
- pIC50 (Human immunodeficiency virus 1, TZM-bl, CH181.12, clade BC, read-out: IC50): 10.00
- pIC50 (Human immunodeficiency virus 1, TZM-bl, CM244.ec1, clade AE, read-out: IC50): 6.59
- pIC50 (Human immunodeficiency virus 1, TZM-bl, CNE3, clade AE, read-out: IC50): 7.21
- pIC50 (Human immunodeficiency virus 1, TZM-bl, CNE4, clade B, read-out: IC50): 5.33
